Our source for the GI50 and TGI values is PubChem BioAssay (NCI).

Several values for one entry are separate records, joined by “and”; a condition that tells them apart may be missing. Equal values may be shown once.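 Where inhibition never reached the appropriate level, the endpoint shown equals the highest concentration tested. Otherwise, values were interpolated linearly from a five-concentration, 48-hour dose response in 96-well plates. At the GI50, growth is halved. Definition used: TGI = concentration required for complete inhibition of growth.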 A value given as a limit tells only on which side of the number the result lay.

This experiment concerns MDA-MB-468 breast. As to the kind of experiment: growth of human tumour cells (NCI), 48 h.
`O=c1oc2ccc(-c3ccc(F)cc3F)cc2c(=O)n1-c1cccc(C(F)(F)F)c1`: the GI50 was 2280 nM and 1130 nM; the TGI is 5830 nM and 3430 nM.
Turning to `CC(C)(/C=C(\C#N)C(=O)N1CCC[C@@H](n2nc(-c3ccc(Oc4ccccc4)cc3F)c3c(N)ncnc32)C1)N1CCN(C2COC2)CC1`, the GI50 was 3630 nM and the TGI is 14900 nM.
The corresponding values for `CN1CCN(c2ccc(Nc3cc(-c4cccc(-n5ccc6cc(C7CC7)cc(F)c6c5=O)c4CO)cn(C)c3=O)nc2)CC1` are 3150 nM and 17100 nM.
On to `CCOC(=O)N[C@H]1CCc2cc(OC)c(OC)c(OC)c2-c2ccc(SC)c(=O)cc21`, for which the GI50 is less than 10 nM and the TGI is greater than 21300 nM.
With `O=C(Cc1ccc(F)c(Cl)c1)Nc1cc(C2(C(F)(F)F)CC2)nn1CC1CCCCC1`, the GI50 is 2680 nM and the TGI worked out at 9280 nM.
On to `N=c1c2c(-c3ccccc3)c(-c3ccccc3)n(Cc3ccccc3)c2ncn1C1CCC(O)CC1` (configuration not stated), for which the GI50 is 631 nM and the TGI worked out at 3230 nM.
For the molecule `O=C(NC[C@H](O)CN1CCc2ccccc2C1)c1cc(NC2COC2)ncn1`, the GI50 was 4250 nM and the TGI worked out at 24500 nM.
On to `COc1cc(Cl)cc(-c2nn(-c3cccc(NC(=O)c4ccc(N5CCOCC5)c(C(F)(F)F)c4)c3)cc2-c2ccncc2)c1`, for which the GI50 is 12100 nM and the TGI is greater than 100000 nM.
The corresponding values for `O=C(/C=C/c1ccc[nH]1)c1ccc(-n2ccc(C(F)(F)F)n2)cc1` are greater than 54600 nM and greater than 100000 nM.
As to `CCOC(=O)Nc1cc2c(c(N)n1)N=C(c1ccccc1)CO2`, the GI50 is 42.7 nM and the TGI came to 394 nM.
The corresponding values for `C[n+]1c(/C=C/c2c(O)ccc3ccccc23)ccc2ccccc21` are 1460 nM and 7080 nM.
As for `Cc1nc(Nc2cccnc2)sc1C(=O)/C=C/c1ccc(F)cc1`, the GI50 was 3220 nM and the TGI is 11100 nM.
The corresponding values for `COc1cnc2c(c1)C(=O)c1c-2n(CCCNC2=NCCS2)c(=O)c2cc([N+](=O)[O-])ccc12` are 28.3 nM and 1530 nM.
For `CN(C)CCCNc1c2ccc(Cl)cc2nc2c1oc1ccc(Cl)cc12` the same measures were 8020 nM and 21800 nM.
The corresponding values for `CCN1CCN(c2cc(C)c3cc(NC(=O)c4ccc(OC)c(OC)c4)ccc3n2)CC1` are 17700 nM and greater than 100000 nM.
As to `CNCCOC(=O)/C=C1\CC[C@H]2[C@@H]([C@@H](O)C(=O)[C@@H]3[C@]2(C)CC[C@H](O)[C@]3(C)C(=O)OC)[C@H]1C`, the GI50 was 1440 nM and the TGI came out at 3690 nM.
Turning to `COc1ccc2nc3ccccc3c(NCc3ccc(F)cc3)c2c1`, the GI50 is 1070 nM and the TGI worked out at 2930 nM.
As to `COC(=O)c1c2c(c(C)[n+]([O-])c1C)C(=O)C=C(NCc1ccc(F)cc1)C2=O`, the GI50 was 284 nM and the TGI was found to be 978 nM.
Take `Cc1cc(N[C@@H]2CCC[C@H](Nc3ccnc4cc(Cl)ccc34)C2)nc(N2CCCCCC2)n1`: the GI50 is 1400 nM and the TGI worked out at 3110 nM.
The corresponding values for `CN(C)C1CCN(C(=O)c2ccc(NC(=O)Nc3ccc(-c4nc(N5CCOCC5)c5cccn5n4)cc3)cc2)CC1` are 18.6 nM and 86.6 nM.
The corresponding values for `Nc1ncn([C@@H]2O[C@H](CO)[C@@H](O)[C@H]2O)c(=O)n1` are 1030 nM and 5340 nM.
With `NC(=O)c1c(NC(=O)c2ccccc2)sc2c1CCC(=O)C2`, the GI50 was 2460 nM and the TGI stood at 6590 nM.
For `COc1cnc2c(c1)C(=O)c1c-2n(CCCN2CCOCC2)c(=O)c2cc(Cl)ccc12` the same measures were 183 nM and 544 nM.
Regarding `CCc1cc(OC(=O)N2CCC(N3CCCCC3)CC2)ccc1Nc1cc(-c2ccc(-n3cccn3)cc2)[nH]n1`, the GI50 was 1740 nM and the TGI stood at 3650 nM.
Take `CC(=O)ON1CCCC(P(=O)(OCCSC(=O)C(C)(C)C)OCCSC(=O)C(C)(C)C)C1=O` (configuration not stated): the GI50 is 2670 nM and the TGI was 23600 nM.
The corresponding values for `O=[N+]([O-])c1ccc(-c2nnc(SCc3ccc(O)c4ncccc34)n2-c2ccccc2)cc1` are 577 nM and 4460 nM.
For `N#Cc1nn(-c2cc(=O)[nH]c3ccc(Cl)cc23)c(N)c1C#N` the same measures were greater than 100000 nM and greater than 100000 nM.
For `CN(C)CC[C@H](CSc1ccccc1)Nc1ccc(S(=O)(=O)NC(=O)c2ccc(N3CCN(Cc4ccccc4-c4ccc(Cl)cc4)CC3)cc2)cc1[N+](=O)[O-]` the same measures were 1380 nM and 3650 nM.
For the molecule `CC(NCCC(c1ccccc1)c1ccccc1)c1ccccc1` (configuration not stated), the GI50 was 1300 nM and the TGI was found to be 2640 nM.
Consider `Cc1nnc(Nc2ccc(NC(=O)Nc3ccc(Cl)cc3)cc2)c2ccccc12`, for which the GI50 was 2840 nM and the TGI is 7430 nM.
Turning to `O=C(Nc1cc(C(F)(F)F)cc(C(F)(F)F)c1)c1cc(Cl)ccc1O`, the GI50 is 195 nM and 238 nM; the TGI is 715 nM and 799 nM.
On to `COc1cc(N=Nc2ccc(O)c3ncccc23)c2ncccc2c1`, for which the GI50 is 2270 nM and the TGI turned out to be 6640 nM.
For `C[C@@H]1C[C@@H]([C@@H](CC2CC(=O)NC(=O)C2)OC(=O)CC(=O)c2ccccc2)C(=O)[C@@H](C)C1` the same measures were 1170 nM and greater than 100000 nM.
Regarding `Clc1cc2c(c(CSc3nc4ccccc4n4cccc34)c1)OCOC2`, the GI50 is 2160 nM and the TGI was greater than 100000 nM.
Regarding `COc1ccc(-c2nnc3n(C)c(=O)c4ccccc4n23)cc1N`, the GI50 is 2330 nM and the TGI was greater than 100000 nM.
With `C[C@@H](Nc1c(C#N)cnc2ccc(-c3cnc(Cl)c(NS(C)(=O)=O)c3)cc12)c1ccccc1`, the GI50 is 74.5 nM and the TGI was 1230 nM.
For `Nc1ncc(-c2ccc3ncnc(Nc4ccc(F)c(Cl)c4)c3c2)cn1` the same measures were 229 nM and 833 nM.
For `COC(=O)[C@]12CC[C@@H](C)[C@H](C)[C@@H]1C1=CC[C@@H]3[C@@]4(C)C[C@@H](O)[C@H](O)[C@@](C)(CO)C4=CC[C@@]3(C)[C@]1(C)CC2` the same measures were 14200 nM and 29700 nM.
Consider `O=C(Nc1ccc(Br)cc1F)c1cc(Cl)ccc1O`, for which the GI50 is 871 nM and the TGI was found to be 4780 nM.
The corresponding values for `CCn1c(O)c(/C=N/NC(=O)C(C)c2ccc(CC(C)C)cc2)sc1=S` (configuration not stated) are 378 nM and 12000 nM.
`NC(N)=N/N=C/c1c(Cl)cccc1Cl`: the GI50 was 12400 nM and the TGI turned out to be 26500 nM.
